Test results published in the NIST ThermoML archive (doi:10.1016/j.jct.2005.03.012).

Experiment: excess molar enthalpy (molar enthalpy of mixing); xn = mol fraction of the nth substance listed
Conditions: Liquid

CO [methanol] + O
Conditions | excess molar enthalpy [kcal/mol]
422.47 K, 5000 kPa, x1 = 0.9 | 0.0141
422.53 K, 5000 kPa, x1 = 0.1 | 0.0114
422.8 K, 10000 kPa, x1 = 0.4 | 0.0539
422.84 K, 5000 kPa, x1 = 0.4 | 0.0521
422.84 K, 5000 kPa, x1 = 0.5 | 0.0547
422.86 K, 2000 kPa, x1 = 0.4 | 0.05
423.02 K, 10000 kPa, x1 = 0.6 | 0.0528
423.08 K, 2000 kPa, x1 = 0.6 | 0.049
423.12 K, 5000 kPa, x1 = 0.6 | 0.0512
423.14 K, 5000 kPa, x1 = 0.7 | 0.0432
423.15 K, 2000 kPa, x1 = 0.2 | 0.0278
423.15 K, 2000 kPa, x1 = 0.4 | 0.0501
423.15 K, 2000 kPa, x1 = 0.6 | 0.0484
423.15 K, 2000 kPa, x1 = 0.8 | 0.027
423.15 K, 5000 kPa, x1 = 0.1 | 0.0118
423.15 K, 5000 kPa, x1 = 0.2 | 0.0287
423.15 K, 5000 kPa, x1 = 0.3 | 0.0414
423.15 K, 5000 kPa, x1 = 0.4 | 0.0522
423.15 K, 5000 kPa, x1 = 0.5 | 0.0549
423.15 K, 5000 kPa, x1 = 0.6 | 0.0514
423.15 K, 5000 kPa, x1 = 0.7 | 0.0421
423.15 K, 5000 kPa, x1 = 0.8 | 0.0294
423.15 K, 5000 kPa, x1 = 0.9 | 0.0143
423.15 K, 10000 kPa, x1 = 0.2 | 0.0302
423.15 K, 10000 kPa, x1 = 0.4 | 0.0538
423.15 K, 10000 kPa, x1 = 0.6 | 0.0531
423.15 K, 10000 kPa, x1 = 0.8 | 0.0302
423.37 K, 5000 kPa, x1 = 0.3 | 0.0416
423.39 K, 5000 kPa, x1 = 0.8 | 0.0299
423.49 K, 2000 kPa, x1 = 0.8 | 0.0275
423.62 K, 10000 kPa, x1 = 0.8 | 0.0305
423.64 K, 10000 kPa, x1 = 0.2 | 0.0315
423.68 K, 5000 kPa, x1 = 0.2 | 0.0299
423.69 K, 2000 kPa, x1 = 0.2 | 0.0288
423.76 K, 5000 kPa, x1 = 0.9 | 0.0151
424.45 K, 5000 kPa, x1 = 0.1 | 0.0132
424.96 K, 5000 kPa, x1 = 0.1 | 0.0136
424.96 K, 5000 kPa, x1 = 0.2 | 0.0315
424.96 K, 5000 kPa, x1 = 0.3 | 0.0442
424.96 K, 5000 kPa, x1 = 0.4 | 0.056
424.96 K, 5000 kPa, x1 = 0.5 | 0.0586
424.96 K, 5000 kPa, x1 = 0.6 | 0.0565
424.96 K, 5000 kPa, x1 = 0.7 | 0.0451
424.96 K, 5000 kPa, x1 = 0.8 | 0.0318
424.96 K, 5000 kPa, x1 = 0.9 | 0.016
425 K, 2000 kPa, x1 = 0.2 | 0.0306
425 K, 2000 kPa, x1 = 0.4 | 0.054
425 K, 2000 kPa, x1 = 0.6 | 0.0545
425 K, 2000 kPa, x1 = 0.8 | 0.0286
425.1 K, 10000 kPa, x1 = 0.2 | 0.0334
425.1 K, 10000 kPa, x1 = 0.4 | 0.0578
425.1 K, 10000 kPa, x1 = 0.6 | 0.0584
